US20200270225A1, “Chiral Diacylhydrazine Ligands for Modulating the Expression of Exogenous Genes via an Ecdysone Receptor Complex” (Intrexon Corporation, priority 2007, published 2020)
Like-named read-outs stand apart in the source and are kept apart here.

Key:
[1] = Intrinsic dissolution of compressed pellets in 1% Polysorbate 80; format: physicochemical; conditions: 1% Polysorbate 80 in di-water, 37° C., up to 120 minutes
Description: Next, the intrinsic dissolution profiles of R enantiomer and racemate of 2-ethyl-3-methoxy-benzoic acid N′-(1-tert-butyl-butyl)-N′-(3,5-dimethyl-benzoyl)-hydrazide were determined using compressed pellets (7 mm diameter, 100 mg) in 1% Polysorbate 80 in Di-water at 37° C., according to the following test conditions:
Medium: 1% Polysorbate 80 in di-water (vacuum filtered thru a 0.8 μM filter)
Sampling volume: 1 mL (filtered thru 30 micron)
Analysis: HPLC (prepare standard solutions from each lot)
Sample size: n=2 pellets/test substance
After 120 minutes, it was observed that the pellets for both substances remained intact in the medium.

[2] = target: wild-type Choristoneura fumiferana EcR (D, E and F domains) (Choristoneura fumiferana, UniProt O77240); format: cell-based; conditions: WT-CtEcR, 3T3 Cells; for RMFI (relative maximum fold induction): relative to GS-E ligand
Outline: (§1)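 NIH3T3 cells were transiently co-transfected with GAL4-DBD fused to CfEcR DEF domains (wild-type or V390I/Y410E/E274V), VP16-AD fused to chimeric human/Locusta RXR, and a GAL4-response luciferase reporter. Ligand was given at 8 doses, 0.01–33 µM, 0.33% DMSO, luciferase read at 48 h. EC50 came from fold induction over DMSO via three-parameter logistic fit; Relative Max FI was taken versus GS™-E ligand.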

[3] = target: T1, [V390I/Y410E/E274V]-CfEcR (Choristoneura fumiferana, UniProt O77240); format: cell-based; conditions: 3T3 Cells; for RMFI (relative maximum fold induction): relative to GS-E ligand
T1 construct: assay construct b835
Outline: as §1

[4] = Blood serum levels after oral gavage in Labrasol; format: in vivo, C57BL/6N:Crl mice; conditions: 30 and 50 mg/kg/day, 9 and 12 days
Description: Compounds in Labrasol were administered to C57BL/6N:Crl (wild-type) mice (Charles River Laboratories) by oral gavage, the intended route of administration in humans. Dosage was set at 3, 10, 30, or 50 mg/kg/day and 2.5 mL/kg/dose (FIG. 16). Doses were administered for 9 days (first 18 females/group) or 12 days (second 18 females/group) (FIG. 16). Blood was withdrawn at 9-day and 12-day time points. Concentrations were quantified by reverse-phase HPLC.
For each concentration, the samples were prepared by adding Labrasol to solid R enantiomer or racemate in a beaker, sonicating to break up visible aggregates, and magnetic stirring until a uniform appearance was attained. The mixtures were transferred to a graduated cylinder and topped off to the requisite volume using a Labrasol rinse of the beaker. The contents of the cylinder were mixed by inversion and stirred magnetically until dosing.
Mouse blood serum levels as a function of time were measured by quantitative HPLC. […] The initial particle size differences between racemate an R enantiomer may account for a portion of the serum level differences. Also, the greater intrinsic solubility of the R enantiomer over the racemate in Labrasol may account for a portion of the serum level differences. […]

SMILES: CCCC(N(NC(=O)c1cccc(OC)c1CC)C(=O)c1cc(C)cc(C)c1)C(C)(C)C (racemic) [rac-1, rac-2-ethyl-3-methoxy-benzoic acid N′-(1-tert-butyl-butyl)-N′-(3,5-dimethyl-benzoyl)-hydrazide]
- release from compressed pellets (intrinsic dissolution) [1]: under the detection limit
- EC50 ([2]; rac): 1.63 nM
- RMFI (relative maximum fold induction) ([2]; rac): 1.05
- EC50 ([3]; rac): 0.14 nM
- RMFI (relative maximum fold induction) ([3]; rac): 1.05
- blood serum levels [4]: substantially lower (<4-5 fold AUC)

SMILES: CCC[C@@H](N(NC(=O)c1cccc(OC)c1CC)C(=O)c1cc(C)cc(C)c1)C(C)(C)C [Example 1, (R)-3,5-Dimethyl-benzoic Acid N-(1-tert-butyl-butyl)-N′-(2-ethyl-3-methoxy-benzoyl)-hydrazide]
- release from compressed pellets (intrinsic dissolution) [1]: under the detection limit
- EC50 ([2]; R): 2.23 nM
- RMFI (relative maximum fold induction) ([2]; R): 0.97
- EC50 ([3]; R): 0.13 nM
- RMFI (relative maximum fold induction) ([3]; R): 0.82
- blood serum levels [4]: significantly higher blood serum levels
